For the test, the target named is PIK3CA (human) (UniProt P42336). The test can be described thus: Assessment of PIK3CA Kinase Activity.
Sequence of PIK3CA (human) (P42336 whole entry, looked up): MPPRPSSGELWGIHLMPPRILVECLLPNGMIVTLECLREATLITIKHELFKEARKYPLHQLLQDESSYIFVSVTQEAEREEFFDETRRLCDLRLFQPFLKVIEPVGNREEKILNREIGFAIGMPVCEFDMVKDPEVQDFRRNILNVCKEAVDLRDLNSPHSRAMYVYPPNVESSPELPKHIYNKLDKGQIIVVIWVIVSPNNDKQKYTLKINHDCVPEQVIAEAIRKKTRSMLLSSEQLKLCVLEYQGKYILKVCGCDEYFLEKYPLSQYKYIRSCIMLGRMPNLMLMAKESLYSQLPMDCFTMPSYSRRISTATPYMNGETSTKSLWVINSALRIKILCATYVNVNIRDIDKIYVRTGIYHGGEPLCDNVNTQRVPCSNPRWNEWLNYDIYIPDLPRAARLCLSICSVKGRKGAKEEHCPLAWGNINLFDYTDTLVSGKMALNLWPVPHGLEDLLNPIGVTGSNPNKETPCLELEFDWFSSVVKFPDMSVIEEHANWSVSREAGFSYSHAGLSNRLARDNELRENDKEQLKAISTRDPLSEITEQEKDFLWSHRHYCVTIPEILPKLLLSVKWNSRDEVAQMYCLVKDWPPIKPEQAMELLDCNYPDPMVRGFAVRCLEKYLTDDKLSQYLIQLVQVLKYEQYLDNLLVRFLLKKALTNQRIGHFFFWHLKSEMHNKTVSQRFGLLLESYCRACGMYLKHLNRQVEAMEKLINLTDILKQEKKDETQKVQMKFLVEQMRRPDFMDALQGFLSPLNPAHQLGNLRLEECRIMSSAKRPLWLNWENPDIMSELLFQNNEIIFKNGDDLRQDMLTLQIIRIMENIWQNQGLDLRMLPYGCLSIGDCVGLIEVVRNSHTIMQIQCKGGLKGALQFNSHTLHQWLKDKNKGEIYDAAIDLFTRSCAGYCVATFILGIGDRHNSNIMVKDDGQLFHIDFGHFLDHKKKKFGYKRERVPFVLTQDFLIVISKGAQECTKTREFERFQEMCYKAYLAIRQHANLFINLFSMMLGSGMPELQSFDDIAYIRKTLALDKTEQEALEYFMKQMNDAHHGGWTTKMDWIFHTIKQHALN
For the molecule `CCNC(=O)NCCNc1nn2c(-c3cnc(N)c(C(F)(F)F)c3)cnc2s1`, the IC50 (usually the midpoint of a concentration-inhibition curve) was 50 to 1000 nM. For `Nc1ncc(-c2c(Cl)nc3sc(N[C@H]4CC[C@H](O)CC4)nn23)cc1C(F)(F)F`, the IC50 worked out at 104 nM. Consider `CCNC(=O)N1CCC(CNc2nn3c(-c4cnc(N)c(C(F)(F)F)c4)cnc3s2)CC1`, for which the IC50 was in the range of 1 to 50 nM.

`Nc1ncc(-c2cnc3sc(N4CC5(CCNCC5)C4)nn23)cc1C(F)(F)F`: the IC50 was 50 to 1000 nM. The molecule `CNC(=O)C1CCCN(c2nn3c(-c4cnc(N)c(C(F)(F)F)c4)cnc3s2)C1` (centres undefined) had an IC50 of 213 nM. `CS(=O)(=O)N1CCN(c2nn3c(-c4cnc(N)c(C(F)(F)F)c4)cnc3s2)CC1` yielded a half-maximal inhibitory concentration (IC50) of 50 to 1000 nM. The value for `CS(=O)(=O)N1CCC(N(CCN2CCCC2)c2nn3c(-c4cnc(N)c(C(F)(F)F)c4)cnc3s2)CC1` was 1 to 50 nM; that for `CS(=O)(=O)N1CCN2CCN(c3nn4c(-c5cnc(N)c(C(F)(F)F)c5)cnc4s3)CC2C1` (centres undefined) was 94 nM.

With `CS(=O)(=O)NC1CCCN(c2nn3c(-c4cnc(N)c(C(F)(F)F)c4)cnc3s2)C1` (centres undefined), the IC50 lay in the range of 50 to 1000 nM. The molecule `CN(c1nn2c(-c3cnc(N)c(C(F)(F)F)c3)cnc2s1)C1CCC(=NO)CC1` (centres undefined) returned an IC50 of 82 nM. In turn, `Nc1ncc(-c2cnc3sc(N4CCNCC4)nn23)cc1C(F)(F)F` displayed a concentration for half-maximal inhibition (IC50) of 1300 nM. Molecule `Nc1ncc(-c2cnc3sc(NC[C@H]4CC[C@H](O)CC4)nn23)cc1C(F)(F)F` registered an IC50 of 129 nM. As to `Nc1ncc(-c2cnc3sc(N4CCCC(C(=O)O)C4)nn23)cc1C(F)(F)F` (centres undefined), the IC50 was 50 to 1000 nM. The molecule `Nc1ncc(-c2c(Cl)nc3sc(N[C@H]4CC[C@H](N)CC4)nn23)cc1C(F)(F)F` returned a 50% inhibitory concentration (IC50) of 109 nM. On to `Nc1ncc(-c2cnc3sc(NC4CCN(S(=O)(=O)C5CNC5)CC4)nn23)cc1C(F)(F)F`, for which the IC50 was 14 nM. The value for `COc1cncc(-c2cnc3sc(NC4CCN(S(C)(=O)=O)CC4)nn23)c1` was 50 to 1000 nM. Take `Nc1ncc(-c2cnc3sc(N4CCN5CCNCC5C4)nn23)cc1C(F)(F)F` (centres undefined): the IC50 is 85 nM. The value for `CC(=O)N1CCC(Nc2nn3c(-c4cnc(N)c(C(F)(F)F)c4)cnc3s2)CC1` was 18 nM; that for `Cc1nc2sc(NC3CCN(S(C)(=O)=O)CC3)nn2c1-c1cnc(N)c(C(F)(F)F)c1` was 1 to 50 nM; that for `Nc1ncc(-c2cnc3sc(N4CCC(N)C4)nn23)cc1C(F)(F)F` (centres undefined) was 1000 nM. `CS(=O)(=O)N1CCC(Nc2nn3c(-c4cncc(C(F)(F)F)c4)cnc3s2)CC1` displayed an IC50 of 50 to 1000 nM. `CS(=O)(=O)N1CCC2(CC1)CN(c1nn3c(-c4cnc(N)c(C(F)(F)F)c4)cnc3s1)C2` yielded an IC50 of 50 to 1000 nM.

`CC(C)(C)OC(=O)NC1CCCN(c2nn3c(-c4cnc(N)c(C(F)(F)F)c4)cnc3s2)C1` (centres undefined) yielded an IC50 of 230 nM.

For the molecule `Nc1ncc(-c2cnc3sc(NCC4CCNCC4)nn23)cc1C(F)(F)F`, the IC50 lay within 50 to 1000 nM. As to `CC(C)(C)OC(=O)N1CCC2(CC1)CCN(c1nn3c(-c4cnc(N)c(C(F)(F)F)c4)cnc3s1)CC2`, the IC50 worked out at 1600 nM. The molecule `Nc1ncc(-c2cnc3sc(N4CCC(O)CC4)nn23)cc1C(F)(F)F` registered an IC50 of 50 to 1000 nM. In the case of `NCC(=O)O[C@H]1CC[C@H](Nc2nn3c(-c4cnc(N)c(C(F)(F)F)c4)cnc3s2)CC1` it was 1 to 50 nM; in that of `Nc1ncc(-c2cnc3sc(NC4CC5(CCNCC5)C4)nn23)cc1C(F)(F)F`, 17 nM; in that of `CCNC(=O)N[C@H]1CC[C@H](Nc2nn3c(-c4cnc(N)c(C(F)(F)F)c4)c(Cl)nc3s2)CC1`, 1 to 50 nM. Molecule `CN1CCC(CNc2nn3c(-c4cnc(N)c(C(F)(F)F)c4)cnc3s2)CC1` gave an IC50 of 301 nM. As to `CC(C)(C)OC(=O)NC1CCN(c2nn3c(-c4cnc(N)c(C(F)(F)F)c4)cnc3s2)C1` (centres undefined), the 50% inhibitory concentration (IC50) amounted to 177 nM. Molecule `C[C@]1(O)CC[C@@H](Nc2nn3c(-c4cnc(N)c(C(F)(F)F)c4)cnc3s2)CC1` yielded an IC50 of 22 nM. In turn, `CCNC(=O)NC1CCCN(c2nn3c(-c4cnc(N)c(C(F)(F)F)c4)cnc3s2)C1` (centres undefined) yielded a concentration for half-maximal inhibition (IC50) of 483 nM. The molecule `CN(c1nn2c(-c3cnc(N)c(C(F)(F)F)c3)cnc2s1)C1CCN(C(=O)OC(C)(C)C)CC1` came in with an IC50 of 50 to 1000 nM.

For the origin of these results see the Kinase Knowledgebase extract (Sharma et al. 2016).
